System: Male Sprague-Dawley rats
Settings: 72 hours after IP injection of oxaliplatin
Method: Male Sprague-Dawley rats (Charles River Lab, France), weighing 175 to 200 grams, were placed in a cage with food and water ad libitum, in a temperature-controlled environment at 22° C. with a 12 h/12 h day/night cycle. The experiments were conducted under blind conditions in a calm room by the same experimenter, while taking care to comply with the regulations on animal experimentation.
This low-temperature immersion test made it possible to measure the hypersensitivity to cold in the animals. The bottom third of the rat's tail was immersed in a temperature-controlled bath 10° C. until it was removed or until the “cut-off” set at 30 seconds (Necker and Hellon. 1978 Pain. 4: 231-242).
The experimental data was analyzed using the software program Sigma STAT, version 3.0 for Windows (STAT32 Software Inc., San Diego, Calif.). The kinetics of the reaction times to the temperature-based stimulation were analyzed using a two-factor variance analysis followed by a multiple comparison test to study the change over time. […] The significance threshold was P<0.05.

## O=C(O)C(=O)O.[NH-][C@@H]1CCCC[C@H]1[NH-].[Pt+2] [oxaliplatin]
FIG. 1
  effect on cold sensitivity threshold (10° C.): reduced the cold sensitivity threshold
Tail immersed in water at 10° C., untreated rat around 12 seconds, cut-off 30 seconds
  time after which the rat removed its tail: 7 s

— US9511045B2 (UNIVERSITE D'AUVERGNE CLERMONT I, priority 2010, dated 2016)
